The subject of assay [1] is intrathecal TNF-α-induced hypersensitivity. Description: Intrathecal TNF-α-induced heat hyperalgesia and mechanical allodynia. Type of assay: in vivo, mice. As for the experimental part:
Behavioral analysis. Mice were habituated in the testing environment for two days and performed behavioral testing in a blinded manner. Formalin-evoked spontaneous inflammatory pain was assessed by measuring duration (seconds) animals spent on licking/flinching the affected paws every 5 min for 45 min. Capsaicin-induced spontaneous pain was aslo assessed for 10 min. For testing mechanical sensitivity, mice were put in boxes on an elevated metal mesh floor and stimulated hindpaw with a series of von Frey hairs with logarithmically incrementing stiffness (0.02-2.56 grams, Stoelting), presented perpendicular to the plantar surface. It was determined the 50% paw withdrawal threshold using Dixon's up-down method^40. For testing heat sensitivity, mice were placed in plastic boxes and tested heat sensitivity using Hargreaves radiant heat apparatus (IITC Life Science Inc.). The basal paw withdrawal latency was adjusted to 9-12 seconds and set a cut-off of 20 seconds to prevent tissue damage. […] BL1, baseline latency before inflammation; BL2, baseline latency after inflammation but before drug injection; PL, latency post drug injection. Intrathecal injection: […] To examine whether pretreatment of RvE1 attenuates capsaicin-induced acute spontaneous pain, RvE1 and capsaicin were mixed and injected at the same time (FIG. 3f).

The test system of assay [2] is carrageenan (CRG)-elicited heat hyperalgesia. Briefly: Carrageenan (CRG)-elicited heat hyperalgesia. Type of assay: in vivo, mice. The settings on record: intraplantar pretreatment, 20 ng, 10 min before carrageenan. As for the experimental part: Animals and pain models. Adult CD1 mice (male, 25-32 g) were used for most experiments. Knockout mice were used lacking TNFR1/II (Tnfrsf1a/1b^−/−) and TRPV1 (Trpv1^−/−) and C57BL/6 wild-type control mice, all from Jackson, for some experiments. All animal procedures performed in this study were approved by the Harvard Medical Area Standing Committee on Animals. 20 μl of diluted formalin (5%), carrageenan (CRG, 1%), or complete Freund's adjuvant (CFA) were injected into the plantar surface of a hindpaw to produce acute, persistent, or chronic inflammatory pain, respectively. Postoperative pain was also produced through hindpaw incision^36 and neuropathic pain by ligation of the spinal nerve^37.
Behavioral analysis. Mice were habituated in the testing environment for two days and performed behavioral testing in a blinded manner. Formalin-evoked spontaneous inflammatory pain was assessed by measuring duration (seconds) animals spent on licking/flinching the affected paws every 5 min for 45 min. Capsaicin-induced spontaneous pain was aslo assessed for 10 min. For testing mechanical sensitivity, mice were put in boxes on an elevated metal mesh floor and stimulated hindpaw with a series of von Frey hairs with logarithmically incrementing stiffness (0.02-2.56 grams, Stoelting), presented perpendicular to the plantar surface. It was determined the 50% paw withdrawal threshold using Dixon's up-down method^40. For testing heat sensitivity, mice were placed in plastic boxes and tested heat sensitivity using Hargreaves radiant heat apparatus (IITC Life Science Inc.). The basal paw withdrawal latency was adjusted to 9-12 seconds and set a cut-off of 20 seconds to prevent tissue damage. The percent maximal possible antinociceptive effect (% M.P.E) was calculated using the equation % M.P.E.=[(PL−BL2)/(BL1−BL2)]×100. BL1, baseline latency before inflammation; BL2, baseline latency after inflammation but before drug injection; PL, latency post drug injection.
Resolvins were also used for intraplantar injection. […]

The test system of assay [3] is glutamate NMDA receptors (NMDARs). Description: NMDA-induced currents in dorsal horn (lamina II) neurons of spinal cord slices. Type of assay: cell-based, mice. The settings on record: NMDA 50 μM; TNF-α 10 ng/ml; PD98059 1 μM, U0126 1 μM, capsazepine 10 μM. The procedure: Spinal cord slice preparation. As previously reported^39, a portion of the lumbar spinal cord (L4-L5) was removed from young mice (3-4 week old) under urethane anesthesia (1.5-2.0 g/kg, i.p.) and transverse spinal cord slices were cut (600 μm) on a vibrating microslicer. The slices were perfused with Kreb's solution (8 ml/min) for >2 h prior to experiments. Some slices were stimulated with TNF-α (10 ng/ml, 5 min), the slices were fixed with 4% paraformaldehyde for 1 h, and processed pERK immunohistochemistry using thin sections (15 μm)^13.
Patch clamp recordings in spinal slices. Whole cell patch-clamp recordings were performed in lamina II neurons in voltage clamp mode^39. After establishing the whole-cell configuration, neurons were held at the holding potentials of −70 mV for recording spontaneous excitatory postsynaptic current (sEPSC). NMDA-induced currents were recorded by bath application of NMDA (50 μM, Sigma) at the holding potential of −50 mV. Membrane currents were amplified with an Axopatch 200A amplifier (Axon Instruments) in voltage-clamp mode. pCLAMP 6 was used and Mini Analysis (Synaptosoft Inc.) software to store and analyze the data. Those cells showing >5% changes from the baseline levels were reagrded as responding ones^24.
Resolvins were also used for intraplantar injection. RvD1 or RvE1 was injected into the plantar surface of a hindapaw [20 ng, 20 μl , in 1% ethanol (Supplementary FIG. 5a, 5b) or in 10% ethanol (FIG. 2e, Supplementary FIG. 1d)]. DRG cultures were incubated with RvE1 (10 ng/ml, 0.1% ethanol in culture medium) and perfused spinal cord slices with RvE1 (1 ng/ml, in 0.01% ethanol and Kreb's solution).
Perfusion of spinal cord slices: Spinal cord slices were incubated with chemerin (100 ng/ml, in Kreb's solution), TNF-α (10 ng/ml, in Kreb's solution), capsaicin (100 nM, in 0.01% DMSO and Kreb's solution), TRPV1 antagonist capsazepine (Sigma, 10 μM, in 0.01% DMSO and Kreb's solution), pertussix toxin (0.5 μg/ml, in Kreb's solution), and MEK inhibitor PD98059 and U0126 (CalBiochem, 1 μM, in 0.01% DMSO and Kreb's solution). For pertussix toxin treatment, spinal cord slices were incubated with the toxin for 3 h before stimulation.

Consider one molecule from patent US20120245229A1, “METHOD FOR TREATING NEUROPATHIC PAIN” (priority 2009, published 2012).

SMILES strings stand for the structures.

In the case of `CC[C@@H](O)/C=C/C=C\C[C@@H](O)/C=C/C=C/C=C\[C@@H](O)CCCC(=O)O` [RvE1, 5S,12R,18R-trihydroxyeicosapentaenoic acid], in assay [1] (intrathecal RvE1 pretreatment), the “mechanical allodynia induced by TNF-α” value is on record as “attenuated”. The TNF-α-induced heat hyperalgesia entry in assay [1] (spinal (intrathecal) RvE1 mixed with TNF-α 20 ng) was “substantially reduced”. Further, the CRG-evoked heat hyperalgesia entry in assay [2] is recorded as “substantially attenuated”. The “TNF-α-induced potentiation of NMDA currents (NMDAR activation)” value in assay [3] is reported as “blocked this potentiation”.
